Assay type in all cases: in vivo, human
Assay [1] concerns recurrent glioblastoma. Put plainly: L19-TNFα treatment of patients with recurrent glioblastoma (tumor perfusion, necrosis, disease status). How it is done: Three patients with recurrent glioblastoma were treated with L19-TNFα at a dose level of 10 μg/kg. […] This is surprising considering that the Progression Free Survival (PFS) for recurrent glioblastoma is 1.5 months.
Assay [2] concerns recurrent glioblastoma. Put plainly: Immunohistochemistry of tumor tissue before and after treatment with L19-TNFα. The note with it: re-section tissue after treatment vs tissue from first surgery, patient with progressive disease.
Assay [3] concerns glioblastoma (WHO grade IV) at first recurrence. The assay is described as follows: L19-TNF plus lomustine in a patient with glioblastoma at first recurrence, contrast enhanced MRI. The note with it: one patient; 13 μg/kg L19-TNF iv on Days 1, 3, 5, 22, 24, 26 with 90 mg/m2 lomustine on Day 1; 40 days after baseline image. How it is done:
This example describes the effect of a combination therapy on a patient with recurrent glioblastoma after chemoradiotherapy followed by temozolomide maintenance therapy.
A patient with glioblastoma (WHO grade IV) at first recurrence, received 90 mg/m2 lomustine (CCNU) on Day 1. Additionally, this patient received 13 μg/kg L19-TNF, by iv infusion, on Days 1, 3, 5, 22, 24 and 26.
The patient had been pretreated for newly diagnosed glioblastoma with resection and chemoradiotherapy followed by temozolomide maintenance therapy.
Contrast enhanced MRI was performed initially, before receiving the lomustine and L19-TNF (baseline image; see FIG. 3A) and 40 days after baseline image (FIG. 3B).

The mark [4] stands for this setting: three patients, 10 μg/kg, twenty-four hours after the infusion.

“Also recorded” adds a separate entry of the source.

Consider L19-TNFα, for which the “disease status, one patient” value in assay [1] (10 μg/kg, one of three patients, after three months) was “progressive disease”. Moreover, the “disease status, two patients” value in assay [1] (10 μg/kg, two of three patients, at six months after treatment, with increasing area of necrosis in the tumor region) was “stable disease”. In addition, in assay [1] (setting [4]), the overall tumor perfusion entry is “decrease” and the tumor necrosis result is “emerging tumor necrosis”. The “glioma lesions (size)” value in assay [1] (two patients, FIG. 1A, after two and six cycles) is “gradually shrink”. For the same substance, the “necrotic core of the lesions” value in assay [1] (two patients, FIG. 1A, before vs after treatment) was “expanding necrotic core”. Moreover, in assay [2], the “cleaved caspase-3 levels in tumor” value is “increase; also recorded: increased levels”, the “tumor-infiltrating CD4 T-cells” value is “significant increase” and the “tumor-infiltrating CD8 T-cells” value was “significant increase”. Moreover, the “tumour size on contrast enhanced MRI” value in assay [3] was “substantially reduced”.

The values above are taken from patent US12377161B2, “TNF-alpha immunoconjugate therapy for the treatment of brain tumors” (priority 2020, dated 2025).
